Like-named read-outs stand apart in the source and are kept apart here.
Key:
GLP1R [1] = conditions: in words, cited from earlier work
Experimental: Exendin4 is a synthetic peptide that binds to GLP1R with nanomolar affinity and high specificity ([4]). […] In the absence of suitable antagonists, agonists such as exendin4 can be used as PET tracers, but care must be taken to avoid unwanted pharmacologic effects. […] Doses of around 0.5 µg/kg elicit up to 50% blocking of the signal.

GLP1R [2] = conditions: in words; cited from earlier work
Experimental: In the absence of suitable antagonists, agonists such as exendin4 can be used as PET tracers, but care must be taken to avoid unwanted pharmacologic effects. […] Doses of around 0.5 µg/kg elicit up to 50% blocking of the signal.

GLP1R [3] = molecular target: T1, GLP1R (Macaca fascicularis, UniProt F8V479); assay: 68Ga-exendin4 PET dose escalation (self-blocking) study in NHP pancreas, Logan Vt; format: in vivo, cynomolgus NHPs; conditions: Vt of 68Ga-exendin4 vs coinjected unlabeled precursor peptide dose, 12 scans, estimated
T1 construct: from tissue; host or cells: pancreas of living cynomolgus monkeys (in vivo PET)
Experimental: A ^68Ga-exendin4 PET/CT imaging study on healthy cynomolgus NHPs was in part reported and described in detail previously ([5]). Briefly, NHPs were scanned by ^68Ga-exendin4 PET using a dose escalation study design in which several examinations were performed, several hours apart, over the course of one or several experimental days. Each subsequent scan entailed a higher peptide mass and radioactive dose to minimize influence from the preceding scan (Table 1). The resulting dataset enabled analysis of the self-blocking effect of the increasing amounts of coinjected unlabeled exendin4 precursor peptide.
Previously, only the simplified SUV analysis of 3 of the NHPs (8 scans) was reported ([5]). In preparation for the design of the clinical study, to better understand the peptide doses at which self-blocking starts to occur, we reanalyzed the dynamic NHP data from all 12 scans by graphical analysis using an image-derived blood plasma input.
Pancreas and other tissues of interest (such as spleen as a negative reference tissue) were delineated using PMOD, version 4.0 (PMOD Technologies). The PET signal for each tissue and time frame was corrected for the injected amount, and the image-derived input function was extracted by segmenting voxels fully within the lumen of the descending aorta as identified on early PET frames and coregistered CT projections. […]

GLP1R in the pancreas = molecular target: T2, GLP1R in the pancreas (Homo sapiens, UniProt P43220); format: in vivo; conditions: humans with T2D, peptide dose less than 0.2 µg/kg; no negative correlation between peptide mass dose and net Ki
T2 construct: underwent PET/CT scanning for GLP1R availability in the pancreas (^68Ga-exendin4); from tissue; host or cells: pancreas of living individuals with type 2 diabetes (in vivo PET/CT)
Experimental: The PET assessments were performed 3 h after a standardized meal followed by fasting, to minimize the variability in GLP1 levels at the time of scanning. The individuals were examined over the abdomen with a Discovery MI PET/CT scanner (20-cm field of view; GE Healthcare). Low-dose CT was performed for attenuation correction and anatomic coregistration of PET images. The dose of the CT scan was limited by dosimetry considerations, given that each individual underwent up to 4 PET/CT examinations over the entire clinical study. A 0.5 MBq/kg target dose of ^68Ga-exendin4 (0.46 ± 0.03 MBq/kg, corresponding to 0.14 ± 0.04 μg of peptide per kilogram) was administered intravenously as a bolus. The amount of administered ^68Ga-exendin4 was based primarily on limiting the associated dose of DO3A-VS-exendin4 precursor peptide to below 0.2 μg/kg. This limit was imposed to minimize any self-blocking, and the cutoff was determined from the NHP dose escalation studies. Dynamic PET was initiated at administration and continued for 60 min. […] For 3 individuals, arterial sampling was performed at 5, 30, and 60 min after ^68Ga-exendin4 administration to measure the radioactivity in whole blood and plasma and to determine the metabolic stability of the tracer (the methods are shown in the supplemental materials, available at http://jnm.snmjournals.org) (17). […]

[4] = parameters: species or system human; conditions: in vivo; for Plasma-to-blood ratio: human, iv, 0.5 MBq/kg
Experimental: Dynamic PET was initiated at administration and continued for 60 min. Blood sampling for glucose was performed before and during the scan as a safety precaution, as exendin4 can stimulate insulin secretion at pharmacologic doses. For 3 individuals, arterial sampling was performed at 5, 30, and 60 min after ^68Ga-exendin4 administration to measure the radioactivity in whole blood and plasma and to determine the metabolic stability of the tracer (the methods are shown in the supplemental materials, available at http://jnm.snmjournals.org) (17). Abdominal tissues of interest, including pancreas (target tissue), aorta (input signal), kidney (excretion), and spleen and erector spinae muscle (negative reference tissues) were manually segmented on coregistered PET/CT images using […] software, version 2.9 (Turku PET Center). The aorta was delineated by segmenting single voxels fully within the lumen of the descending aorta. The arterial plasma image-derived input function was generated by correcting the aorta signal for plasma-to-whole-blood partitioning and for the percentage of intact ^68Ga-exendin4 during the scan (based on a population estimate).

T2 sequence (P43220 24-463): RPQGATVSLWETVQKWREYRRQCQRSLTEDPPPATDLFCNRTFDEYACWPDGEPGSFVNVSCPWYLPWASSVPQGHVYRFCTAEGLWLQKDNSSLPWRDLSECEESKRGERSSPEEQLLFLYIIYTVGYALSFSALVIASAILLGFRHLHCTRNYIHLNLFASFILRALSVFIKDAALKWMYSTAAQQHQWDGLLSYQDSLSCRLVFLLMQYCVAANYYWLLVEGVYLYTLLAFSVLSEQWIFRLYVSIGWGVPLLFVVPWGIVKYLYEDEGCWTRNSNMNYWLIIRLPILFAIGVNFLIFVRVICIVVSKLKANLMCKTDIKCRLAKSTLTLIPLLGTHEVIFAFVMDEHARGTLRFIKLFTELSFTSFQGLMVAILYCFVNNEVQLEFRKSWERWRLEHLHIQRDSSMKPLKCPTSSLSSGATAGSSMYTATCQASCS
T1 sequence (F8V479 24-463): as the sequence (P43220 24-463) above, with S112N, F120S, S202G, L205V, L237F, W241R, I249V counted along it

## exendin4 [reference compound]
GLP1R [1]
  affinity for GLP1R: nanomolar
GLP1R [2]
  GLP1R agonist potency: subnanomolar

## DO3A-VS-exendin4
GLP1R [3]
  dose inducing a 50% decrease in binding (in vivo half-maximal inhibitory concentration): approximately 0.45 µg/kg
GLP1R in the pancreas
  self-blocking: negligible

## ^68Ga-DO3A-VS-exendin4 [^68Ga-exendin4]
[4]; 5 min
  Plasma-to-blood ratio: 1.76 ± 0.06 1/1
[4]; 0.5 h
  Plasma-to-blood ratio: 1.80 ± 0.05 1/1
[4]; 1 h
  Plasma-to-blood ratio: 1.79 ± 0.05 1/1
[4]
  plasma partitioning: ≈ 1.8
GLP1R [1]; radiolabeled tracer
  affinity for GLP1R: nanomolar range
